In patent publication US20050287565A1, “Methods, compositions and compound assays for inhibiting amyloid-beta protein production” (priority 2004, published 2005):

Assays:
Type in all cases: cell-based
ADRA1A [1] = assay: ADRA1A agonist and antagonist validation in Hek293 APPwt cells, amyloid beta ELISA
Source text: (§1) To identify novel drug targets that change the APP processing, stable cell lines over expressing APP are made by transfecting Hek293 or SH-SY5Y cells with APP770 wt cDNA cloned into pcDNA3.1, followed by selection with G418 for 3 weeks. At this time point colonies are picked and stable clones are expanded and tested for their secreted amyloid-beta peptide levels. The cell lines designated as “Hek293 APPwt” and “SH-SY5Y APPwt” are used in the assays.
Hek293 APPwt Assay: Cells seeded in collagen-coated plates at a cell density of 15000 cells/well (384 well plate) in DMEM (10% FBS), are infected 24 h later with 1 μl or 0.2 μl of adenovirus (corresponding to an average multiplicity of infection (MOI) of 120 and 24 respectively). The following day, the virus is washed away and DMEM (25 mM Hepes; 10% FBS) is added to the cells. Amyloid-beta peptides are allowed to accumulate during 24 h.
(§2) ELISA: The ELISA plate is prepared by coating with a capture antibody (JRF/cAbeta42/26) (the antibody recognizes a specific epitope on the C-terminus of Abeta 1-42; obtained from M Mercken, Johnson and Johnson Pharmaceutical Research and Development, B-2340 Beerse, Belgium) overnight in buffer 42 (Table 2) at a concentration of 2.5 μg/ml. The excess capture antibody is washed away the next morning with PBS and the ELISA plate is then blocked overnight with casein buffer (see Table 2) at 4° C. Upon removal of the blocking buffer, 30 μl of the sample is transferred to the ELISA plate and incubated overnight at 4° C. After extensive washing with PBS-Tween20 and PBS, 30 μl of the horseradish peroxidase (HRP) labeled detection antibody (Peroxidase Labeling Kit, Roche), JRF/AbetaN/25-HRP (obtained from M Mercken, Johnson and Johnson Pharmaceutical Research and Development, B-2340 Beerse, Belgium) is diluted 1/5000 in buffer C (see Table 2) and added to the wells for another 2 h. Following the removal of excess detection antibody by a wash with PBS-Tween20 and PBS, HRP activity is detected via addition of luminol substrate (Roche), which is converted into a chemiluminescent signal by the HRP enzyme.
In addition, for the SH-SY5Y APPwt assay, the samples are also analyzed in an amyloid beta x-42 ELISA. This ELISA detects all amyloid beta peptide species ending at position 42, comprising 1-42, 11-42 and 17-42 (p3), which originate respectively from BACE activity at position 1 and 11, and alpha secretase activity at position 17. Thus, in addition to the amyloidogenic pathway, the non-amyloidogenic pathway is also monitored. The protocol for the Abeta x-42 ELISA is identical to the protocol for the Abeta 1-42 ELISA, except that a HRP labeled 4G8 antibody (Signet; the antibody recognizes a specific epitope in the center of the Abeta peptides) is used as detection antibody. […]

ADRA1A [2] = assay: ADRA1A agonist and antagonist validation in SH-SY5Y APPwt cells, amyloid beta ELISA
Procedure: as §1
SH-SY5Y APPwt Assay: Cells are seeded in collagen-coated plates at a cell density of 15000 cells/well (384 well plate) in Dulbecco's MEM with Glutamax I+15% FBS HI+non-essential amino acids+Geneticin 500 μg/ml. The cells are differentiated towards the neuronal phenotype by adding 9-cis retinoic acid to a final concentration of 1 μM on day 1, day 3, day 5 and day 8. On day 9, the cells are infected with 1 μl of adenovirus (corresponding to an average multiplicity of infection (MOI) of 120 respectively). The following day, the virus is washed away and DMEM 25 mM Hepes 10% FBS is added to the cells. Amyloid beta peptides are allowed to accumulate for 24 h.
as §2
In addition, for the SH-SY5Y APPwt assay, the samples are also analyzed in an amyloid beta x-42 ELISA. This ELISA detects all amyloid beta peptide species ending at position 42, comprising 1-42, 11-42 and 17-42 (p3), which originate respectively from BACE activity at position 1 and 11, and alpha secretase activity at position 17. Thus, in addition to the amyloidogenic pathway, the non-amyloidogenic pathway is also monitored. […]

TACR1 = TACR1 (Homo sapiens, UniProt P25103); assay: TACR1 agonist and antagonist validation in Hek293 APPwt cells, amyloid beta ELISA; details: Hek293 APPwt cells infected with Ad5/TACR1_v1
Procedure: ELISA: The ELISA plate is prepared by coating with a capture antibody (JRF/cAbeta42/26) (the antibody recognizes a specific epitope on the C-terminus of Abeta 1-42; obtained from M Mercken, Johnson and Johnson Pharmaceutical Research and Development, B-2340 Beerse, Belgium) overnight in buffer 42 (Table 2) at a concentration of 2.5 μg/ml. The excess capture antibody is washed away the next morning with PBS and the ELISA plate is then blocked overnight with casein buffer (see Table 2) at 4° C. Upon removal of the blocking buffer, 30 μl of the sample is transferred to the ELISA plate and incubated overnight at 4° C. […]
In addition, for the SH-SY5Y APPwt assay, the samples are also analyzed in an amyloid beta x-42 ELISA. […] Thus, in addition to the amyloidogenic pathway, the non-amyloidogenic pathway is also monitored. […]

[3] = Hek293 APPwt cells infected with Ad5/ADRA1A_v1, increasing amounts of agonist, 24 h, concentration dependent
[4] = SH-SY5Y APPwt cells infected with Ad5/ADRA1A_v1, increasing amounts of agonist, 24 h, concentration dependent

Chain of TACR1 (P25103 whole entry): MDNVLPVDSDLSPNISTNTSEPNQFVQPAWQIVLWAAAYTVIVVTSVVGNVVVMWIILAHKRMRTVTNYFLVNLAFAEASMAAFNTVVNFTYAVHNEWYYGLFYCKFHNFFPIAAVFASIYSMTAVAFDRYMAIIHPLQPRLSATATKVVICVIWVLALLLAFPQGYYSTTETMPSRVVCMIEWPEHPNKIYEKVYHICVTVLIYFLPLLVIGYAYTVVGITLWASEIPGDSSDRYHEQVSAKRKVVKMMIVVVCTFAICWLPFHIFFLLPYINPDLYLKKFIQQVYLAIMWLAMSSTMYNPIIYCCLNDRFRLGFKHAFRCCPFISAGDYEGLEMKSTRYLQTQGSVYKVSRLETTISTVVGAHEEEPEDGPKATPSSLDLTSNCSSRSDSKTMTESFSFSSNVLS

For `Br.CS(=O)(=O)Nc1c(O)ccc2c1CCCC2C1=NCCN1` (stereo not shown) [A61603], the “amount of amyloid beta 1-42 secreted in the medium” value (ADRA1A [1]; [3]) was “decreased”, the “amount of amyloid beta x-42 secreted in the medium” value (ADRA1A [1]; [3]) was “increased” and the “amount of amyloid beta 1-42 secreted in the medium” value (ADRA1A [2]; [4]) was “increased”. For the same molecule, the “amount of amyloid beta x-42 secreted in the medium” value (ADRA1A [2]; [4]) was “increased”.

For `Cl.FC(F)(F)c1cc(CO[C@H]2CCCN[C@H]2c2ccccc2)cc(C(F)(F)F)c1` [L-733,060 hydrochloride], the “observed Substance P EC50 values with increasing concentration of the antagonist” value (TACR1; amyloid beta x-42 ELISA, 0.1, 1 and 10 μM antagonist) was “increased” and the “amount of amyloid beta x-42 secreted in the medium” value (TACR1; substance P plus fixed 0.1, 1 and 10 μM antagonist, 24 h, concentration dependent) was “reduces”.

In the case of `CC(C)(Cc1c[nH]c2ccc(Cl)cc12)NCCOc1ccccc1OCC1CC1.Cl` [RS-17053 hydrochloride], the “amount of amyloid beta x-42 secreted in the medium” value (ADRA1A [1]; Hek293 APPwt cells infected with Ad5/ADRA1A_v1, A61603 plus fixed 0.1 and 1 μM antagonist, 24 h, concentration dependent) is reported as “reduced”, the “observed EC50 values (agonist A61603) with increasing concentration of the antagonist” value (ADRA1A [1]; Hek293 APPwt cells, amyloid beta x-42 ELISA, 0.1 and 1 μM antagonist) is reported as “increased” and the “amount of amyloid beta 1-42 secreted in the medium” value (ADRA1A [2]; SH-SY5Y APPwt cells infected with Ad5/ADRA1A_v1, A61603 plus fixed 0.1 and 1 μM antagonist, 24 h, concentration dependent) is reported as “reduced”. For the same molecule, the “observed EC50 values (agonist A61603) with increasing concentration of the antagonist” value (ADRA1A [2]; SH-SY5Y APPwt cells, amyloid beta 1-42 ELISA, 0.1 and 1 μM antagonist) was “increased”.
